Where two headings read alike, the source gives them in different places.
How the values were obtained:
Format in all cases: biochemical
porcine PDHc E1 = molecular target: T1, porcine PDHc E1 (Sus scrofa, UniProt P29804); assay: PDHc E1 inhibitory activity assay (DCPIP reduction)
T1 sequence (P29804 31-390): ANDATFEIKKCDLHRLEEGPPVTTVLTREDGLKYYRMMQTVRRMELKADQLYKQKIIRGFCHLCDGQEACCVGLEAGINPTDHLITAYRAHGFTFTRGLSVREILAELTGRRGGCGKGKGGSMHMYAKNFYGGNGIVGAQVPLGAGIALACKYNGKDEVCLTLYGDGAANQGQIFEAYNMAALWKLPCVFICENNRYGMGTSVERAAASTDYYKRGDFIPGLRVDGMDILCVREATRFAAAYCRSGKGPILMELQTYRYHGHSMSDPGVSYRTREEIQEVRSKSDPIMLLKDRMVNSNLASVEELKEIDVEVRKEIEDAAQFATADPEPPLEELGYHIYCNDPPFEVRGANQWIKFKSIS
Experimental: Enzyme assays – Methods and Results S1
Ligand efficiencies – Calculations S3 […]
Enzyme assays (Methods and Results)
PDHc E1 inhibitory activity assay. Porcine PDHc E1 was purchased from Sigma. Its activity was […]
determined by monitoring 2,6-dichlorophenolindophenol (DCPIP) reduction at 600 nm using a […]
microplate reader (CLARIOstar) and conducted as described 1,2 with some modifications. The percentage inhibition of compounds against porcine PDHc E1 was assayed at a final concentration of 250 µM. The reaction buffer (50 mM KH 2PO4 and 1 mM MgCl 2, pH 7) contained 50 µM ThDP (or 125 µM in the competition assay), 0.25 mM DCPIP, and 2 mg/ml porcine PDHc E1. The reaction mixture […]
was preincubated at 37 °C for 30 min, then the reaction was initiated by adding pyruvate to a final […]
concentration of 50 mM. To determine the half-maximal inhibitory concentration (IC 50 ), ThDP […]
concentration was lowered to 10 µM, and inhibitor concentration was varied (0.4-200 µM). Specific […]
activity was calculated using the molar extinction coefficient of DCPIP, 21 mM -1 cm-1.3 The enzyme […]
IC50 values were calculated from non-linear regression curve fitting using GraphPad Prism.

A. viridans PO = molecular target: T2, A. viridans PO (Aerococcus viridans, UniProt A9X9K8); assay: A. viridans PO inhibitory activity assay (quinoneimine dye)
T2 sequence (A9X9K8 1-592): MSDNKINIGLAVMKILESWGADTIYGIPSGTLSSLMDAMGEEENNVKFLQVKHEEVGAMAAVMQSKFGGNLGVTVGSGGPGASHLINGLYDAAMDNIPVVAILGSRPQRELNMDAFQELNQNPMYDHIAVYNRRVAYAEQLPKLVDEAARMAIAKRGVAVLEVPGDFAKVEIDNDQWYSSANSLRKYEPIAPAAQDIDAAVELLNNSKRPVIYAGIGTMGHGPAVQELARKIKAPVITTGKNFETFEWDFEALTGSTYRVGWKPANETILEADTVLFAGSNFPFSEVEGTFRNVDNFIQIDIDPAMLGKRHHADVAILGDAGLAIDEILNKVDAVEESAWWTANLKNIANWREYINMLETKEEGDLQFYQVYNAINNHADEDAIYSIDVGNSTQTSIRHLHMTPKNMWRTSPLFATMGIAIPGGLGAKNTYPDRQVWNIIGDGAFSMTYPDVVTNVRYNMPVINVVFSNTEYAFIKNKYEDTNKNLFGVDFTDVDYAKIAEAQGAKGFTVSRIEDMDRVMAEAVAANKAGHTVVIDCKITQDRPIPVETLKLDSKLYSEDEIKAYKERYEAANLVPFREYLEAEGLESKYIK
Experimental: A. viridans PO inhibitory activity assay. A. viridans PO and horseradish peroxidase were purchased from Sigma. A. viridans PO activity was determined by monitoring appearance of quinoneimine dye at 550 nm using a microplate reader (CLARIOstar) and conducted as described 1 with some modifications.
The percentage inhibition of compounds against A. viridans PO was assayed at a final concentration of 250 µM. The reaction buffer (50 mM KH 2PO4 and 10 mM MgCl 2, pH 5.9) contained 50 µM ThDP (or 125 µM in the competition assay), 10 µM flavin adenine dinucleotide (FAD), 0.15% 4-Aminoantipyrine, 0.3% N-Ethyl-N-(2-hydroxy-3-sulfopropyl)-m-toluidine (EHSPT), 50 µg/mL horseradish peroxidase and 0.35 U/mL A. viridans PO. The reaction mixture was preincubated at 37 °C for 30 min, then reaction was initiated by adding pyruvate to a final concentration of 50 mM. To determine the IC 50, inhibitor concentration was varied (2-1000 µM) with ThDP concentration at 50 µM. 1 unit of PO activity is defined as 1 μmol of hydrogen peroxide produced per minute. The enzyme IC 50 values were calculated as described for the PDHc E1 assay. […]

S. cerevisiae PDC = molecular target: T3, S. cerevisiae PDC (Saccharomyces cerevisiae, UniProt P06169); assay: S. cerevisiae PDC inhibitory activity assay (DCPIP reduction); settings: compounds insufficiently soluble were excluded; for inhibition at 1500 µM: read-out: Inhibition (%) Yeast PDC
T3 construct: purchased Sigma
T3 sequence (P06169 2-563 limits assumed): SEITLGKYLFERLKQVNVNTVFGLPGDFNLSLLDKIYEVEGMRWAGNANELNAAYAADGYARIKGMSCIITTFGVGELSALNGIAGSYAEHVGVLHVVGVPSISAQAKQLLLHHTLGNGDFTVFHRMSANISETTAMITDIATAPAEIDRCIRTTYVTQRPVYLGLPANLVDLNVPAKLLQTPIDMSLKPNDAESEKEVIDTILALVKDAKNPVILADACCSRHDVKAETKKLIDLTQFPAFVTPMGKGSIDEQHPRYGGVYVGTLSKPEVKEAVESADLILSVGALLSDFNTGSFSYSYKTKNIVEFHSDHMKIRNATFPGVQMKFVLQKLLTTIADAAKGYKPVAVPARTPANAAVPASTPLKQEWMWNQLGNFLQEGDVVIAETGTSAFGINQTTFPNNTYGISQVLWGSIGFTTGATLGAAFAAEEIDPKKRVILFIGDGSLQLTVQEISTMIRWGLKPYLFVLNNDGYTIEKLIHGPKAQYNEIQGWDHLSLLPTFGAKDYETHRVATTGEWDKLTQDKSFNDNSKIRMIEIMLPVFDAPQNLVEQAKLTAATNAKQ
Experimental: S. cerevisiae PDC inhibitory activity assay. S. cerevisiae PDC was purchased from Sigma. Its activity was determined by monitoring DCPIP reduction at 600 nm using a microplate reader (CLARIOstar) and conducted as described 1,2 with some modifications. The percentage inhibition of compounds was assayed at a final concentration of 1500 µM. The reaction buffer (50 mM KH 2PO4 and 1 mM MgCl 2, pH 7) contained 300 µM ThDP (or 750 µM in the competition assay), 0.27 mM DCPIP, and 0.15 mg/ml S. cerevisiae PDC. The reaction mixture was preincubated at 37 °C for 60 min, then reaction was initiated by adding pyruvate to a final concentration of 70 mM. Specific activity was calculated using the molar extinction coefficient of DCPIP, 21 mM -1 cm -1.3 […]

[1] = [Compound] = 250 μM, [ThDP] = 50 μM
[2] = [Compound] = 1.5 mM, [ThDP] = 0.3 mM
[3] = increased ThDP: [Compound] = 250 μM, [ThDP] = 125 μM
[4] = increased ThDP: [Compound] = 1500 μM, [ThDP] = 750 μM

SMILES	Inhibition (%) PDHc E1 (porcine PDHc E1; [1])	Inhibition (%) PO (A. viridans PO; [1])	Inhibition (%) Yeast PDC (S. cerevisiae PDC; [2])	inhibition at 1500 µM (S. cerevisiae PDC; [2])	Inhibition (%) PDHc E1 (porcine PDHc E1; [3])	Inhibition (%) PO (A. viridans PO; [3])	Inhibition (%) Yeast PDC (S. cerevisiae PDC; [4])	L.E. (ligand efficiency) PDHc E1 (porcine PDHc E1; binding energy in kcal mol^–1 derived from the KI value per heavy atom)	IC50 (A. viridans PO; [ThDP] 50 μM)	Ki (A. viridans PO; determined according to the KM for ThDP)	inhibition at 1500 µM (S. cerevisiae PDC; [4])
COc1ccccc1C(=O)NCCCCc1cn(Cc2cnc(C)nc2N)nn1 [Compound 22c]	58 ± 2%	< 20%	Insoluble								
Cc1ncc(Cn2cc(CCCCC(=O)Nc3ccccc3N)nn2)c(N)n1 [Compound 26c]	64 ± 4%	< 20%		< 20%							
Cc1ncc(Cn2cc(CCCn3cc(-c4ccccc4)nn3)nn2)c(N)n1 [Compound 15b]	65 ± 4%	< 20%	Insoluble		40 ± 4%	<20%	Insoluble				
Cc1ncc(Cn2cc(CCC(=O)Nc3ccccc3N)nn2)c(N)n1 [Compound 26a]	75 ± 5%	< 20%		< 20%							
COc1cccc(C(=O)NCCCc2cn(Cc3cnc(C)nc3N)nn2)c1 [Compound 21b]	61 ± 2%	< 20%		38 ± 5%							
COc1ccccc1C(=O)NCCCc1cn(Cc2cnc(C)nc2N)nn1 [Compound 22b]	58 ± 3%	< 20%	Insoluble								
Cc1ncc(Cn2cc(CCO)nn2)c(N)n1 [Compound 9a]	55 ± 2%	< 20%		37 ± 3%							
COc1cccc(C(=O)NCCCCc2cn(Cc3cnc(C)nc3N)nn2)c1 [Compound 21c]	60 ± 5%	< 20%	Insoluble								
Cc1ncc(Cn2cc(CCOC(=O)c3cccc(-c4noc(C(F)(F)F)n4)c3)nn2)c(N)n1 [Compound 13a]	72 ± 2%	< 20%	Insoluble								
Cc1ncc(Cn2cc(CCCn3cc(-c4ccc(F)cc4)nn3)nn2)c(N)n1 [Compound 16b]	66 ± 4%	< 20%	Insoluble		43 ± 2%	<20%	Insoluble				
Cc1ncc(Cn2cc(CCCC(=O)Nc3ccccc3N)nn2)c(N)n1 [Compound 26b]	59 ± 2%	< 20%		28 ± 3%							
Cc1ncc(Cn2cc(CCCC(=O)NO)nn2)c(N)n1 [Compound 24b]	> 90%	35 ± 5%		65 ± 2%	70 ± 3%	27 ± 4%		0.50	202 ± 19 µM	20.2 µM	42 ± 4%
Cc1ncc(Cn2cc(CCCCO)nn2)c(N)n1 [Compound 9c]	57 ± 2%	< 20%		33 ± 4%							
Cc1ncc(Cn2cc(CCCCn3cc(-c4ccccc4)nn3)nn2)c(N)n1 [Compound 15c]	> 90%	< 20%	Insoluble		75 ± 4%	<20%	Insoluble				
Cc1ncc(Cn2cc(CCNC(=O)c3cccc(-c4noc(C(F)(F)F)n4)c3)nn2)c(N)n1 [Compound 19a]	48 ± 3%	< 20%	Insoluble								
COc1ccc(-c2cn(CCCc3cn(Cc4cnc(C)nc4N)nn3)nn2)cc1 [Compound 17b]	71 ± 2%	< 20%	Insoluble		45 ± 3%	<20%	Insoluble				
Cc1ncc(C[n+]2csc(CCO[P@@](=O)(O)OP(=O)(O)O)c2C)c(O)n1 [OxThDP 7b, oxythiamine diphosphate, reference compound]	> 90%	48 ± 4%		81 ± 3%	75 ± 3%	32 ± 5%					63 ± 3%
Cc1ncc(Cn2cc(CCCNS(=O)(=O)C(F)(F)F)nn2)c(N)n1 [Compound 18b]	55 ± 2%	< 20%		37 ± 4%							
Cc1ncc(Cn2cc(CCn3cc(-c4ccccc4)nn3)nn2)c(N)n1 [Compound 15a]	45 ± 3%	22 ± 2%	Insoluble		<20%	<20%	Insoluble				
Cc1ncc(Cn2cc(CCCCNS(=O)(=O)C(F)(F)F)nn2)c(N)n1 [Compound 18c]	71 ± 3%	22 ± 4%	Insoluble								

From article PMC10184313, “Inhibition of Thiamine Diphosphate-Dependent Enzymes by Triazole-Based Thiamine Analogues” (ACS Medicinal Chemistry Letters, 2023)
